According to patent US12473290B2, “Imidazopyridazine compounds useful as modulators of IL-12, IL-23 and/or IFN alpha responses” (BRISTOL-MYERS SQUIBB COMPANY, priority 2019, dated 2025):
pIC50: −log10 of the molar value.

Legend:
[1] = Kit225 T Cell Assay, IL-23-stimulated STAT-dependent luciferase reporter; type: cell-based; details: Kit225 T cells, 20 ng/mL human recombinant IL-23, 5-6 hours, luciferase expression
Protocol: (§1) Kit225 T cells with a stably-integrated STAT-dependent luciferase reporter were plated in RPMI (Gibco) containing 10% heat-inactivated FBS (Gibco) and 100 U/mL PenStrep (Gibco). The cells were then stimulated with either 20 ng/mL human recombinant IL-23 or 200 U/mL human recombinant IFNα (PBL InterferonSource) for 5-6 hours. Luciferase expression was measured using the STEADY-GLO® Luciferase Assay System (Promega) according to the manufacturer's instructions. Inhibition data were calculated by comparison to no inhibitor control wells for 0% inhibition and non-stimulated control wells for 100% inhibition. Dose response curves were generated to determine the concentration required to inhibit 50% of cellular response (IC50) as derived by non-linear regression analysis.

[2] = test system: IFNα Kit225 Reporter (Kit225 T cells with a stably-integrated STAT-dependent luciferase reporter, stimulated with IFNα); test: Kit225 T Cell Assay, IFNα-stimulated STAT-dependent luciferase reporter; type: cell-based; details: 200 U/mL human recombinant IFNα, 5-6 hours, luciferase expression
Protocol: as §1

| pIC50 [1] | pIC50 [2] | Compound |
| --- | --- | --- |
| 6.33 | 6.47 | N#Cc1cnc2c(Nc3ccc(C(=O)N4CCCC4)cn3)cc(NC3CCOCC3)nn12 [Example 23, 6-[(oxan-4-yl)amino]-8-{[5-(pyrrolidine-1-carbonyl)pyridin-2-yl]amino}imidazo[1,2-b]pyridazine-3-carbonitrile] |
| 6.18 | 6.03 | N#Cc1cnc2c(Nc3cccc(N4CCCCCC4=O)n3)cc(N[C@@H]3CCCC[C@H]3O)nn12 [Example 59, 6-{[(1R,2R)-2-hydroxycyclohexyl]amino}-8-{[6-(2-oxoazepan-1-yl)pyridin-2-yl]amino}imidazo[1,2-b]pyridazine-3-carbonitrile] |
| 6.37 | 6.24 | N#Cc1cnc2c(Nc3ccc(C(=O)N4C[C@H]5CC[C@@H]4C5)c(OCC(F)F)n3)cc(N[C@@H]3CCCC[C@H]3O)nn12 [Example 34, 8-({5-[(1R,4S)-2-azabicyclo[2.2.1]heptane-2-carbonyl]-6-(2,2-difluoroethoxy)pyridin-2-yl}amino)-6-{[(1R,2R)-2-hydroxycyclohexyl]amino}imidazo[1,2-b]pyridazine-3-carbonitrile] |
| 6.46 | 6.43 | CC(C)C(=O)N1CCN(c2cccc(Nc3cc(N[C@@H]4CCCC[C@H]4O)nn4c(C#N)cnc34)n2)CC1 [Example 60, 6-{[(1R,2R)-2-hydroxycyclohexyl]amino}-8-({6-[4-(2-methylpropanoyl)piperazin-1-yl]pyridin-2-yl}amino)imidazo[1,2-b]pyridazine-3-carbonitrile] |

Second part, the molecule before the results:

| Compound | pIC50 [1] | pIC50 [2] |
| --- | --- | --- |
| CC(C)(C)Oc1nc(Nc2cc(N[C@@H]3CCCC[C@H]3O)nn3c(C#N)cnc23)ccc1C(=O)N1CCCC1 [Example 12, 8-{[6-(tert-butoxy)-5-(pyrrolidine-1-carbonyl)pyridin-2-yl]amino}-6-{[(1R,2R)-2-hydroxycyclohexyl]amino}imidazo[1,2-b]pyridazine-3-carbonitrile] | 5.56 | 6.42 |
| N#Cc1cnc2c(Nc3cccc(NC(=O)C4CC4)n3)cc(NCC3CC3)nn12 [Example 27, N-[6-({3-cyano-6-[(cyclopropylmethyl)amino]imidazo[1,2-b]pyridazin-8-yl}amino)pyridin-2-yl]cyclopropanecarboxamide] | 6.51 | 6.80 |
| CN(CCc1ccccn1)C(=O)c1ccc(Nc2cc(N[C@@H]3CCCC[C@H]3O)nn3c(C#N)cnc23)nc1N(C)C [Example 31, 6-[(3-cyano-6-{[(1R,2R)-2-hydroxycyclohexyl]amino}imidazo[1,2-b]pyridazin-8-yl)amino]-2-(dimethylamino)-N-methyl-N-[2-(pyridin-2-yl)ethyl]pyridine-3-carboxamide] | 6.19 | 6.06 |
| CC(C)(C)Oc1nc(Nc2cc(N[C@H]3CCCC[C@@H]3O)nn3c(C#N)cnc23)ccc1C(=O)N1CCCC1 [Example 5, 8-{[6-(tert-butoxy)-5-(pyrrolidine-1-carbonyl)pyridin-2-yl]amino}-6-{[(1S,2S)-2-hydroxycyclohexyl]amino}imidazo[1,2-b]pyridazine-3-carbonitrile] | 5.95 | 5.89 |
| CN(C)C1CCN(C(=O)c2ccc(Nc3cc(NC4CCOCC4)nn4c(C#N)cnc34)nc2OCC(F)F)C1 (centres unmarked) [Example 48, 8-{[6-(2,2-difluoroethoxy)-5-[3-(dimethylamino)pyrrolidine-1-carbonyl]pyridin-2-yl]amino}-6-[(oxan-4-yl)amino]imidazo[1,2-b]pyridazine-3-carbonitrile] | 6.13 | 6.47 |
| N#Cc1cnc2c(Nc3ccc(C(=O)N4CCCC4C(F)(F)F)c(OCC(F)F)n3)cc(NC3CCOCC3)nn12 (centres unmarked) [Example 49, 8-{[6-(2,2-difluoroethoxy)-5-[2-(trifluoromethyl)pyrrolidine-1-carbonyl]pyridin-2-yl]amino}-6-[(oxan-4-yl)amino]imidazo[1,2-b]pyridazine-3-carbonitrile] | 6.80 | 6.66 |
